Reference: PubChem BioAssay AID256 (DTP/NCI, 2004)
Values joined by “and” are separate entries in the source; they are usually repeats but may differ in a detail not shown here. Equal values may be shown once. Toxic doses and inconclusive results are not listed. Rule for the calls: active = survival T/C of 150% or more; inactive = T/C below 125% in these data.

Tested on: CD2F1 mice, L1210 leukemia ip, survival T/C
Test: NCI In Vivo Anticancer Drug Screen. Data for tumor model L1210 Leukemia (intraperitoneal) in CD2F1 (CDF1) mice
Settings: higher = longer survival
Procedure, shortened: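 Activity against a transplanted murine tumor was judged by comparing the compound group with a vehicle group. The outcome in the treated animals was divided by that in the controls.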

[1] = endpoint: mean survival time, dose: 100.0 mg/kg/injection, schedule: Q01DX001 (ip), vehicle: saline with Tween-80
[2] = endpoint: mean survival time, dose: 400.0 mg/kg/injection, schedule: Q01DX001 (ip), vehicle: saline with Tween-80
[3] = endpoint: mean survival time, dose: 100.0 mg/kg/injection, schedule: Q04DX002 (ip), vehicle: saline with Tween-80
[4] = endpoint: mean survival time, dose: 200.0 mg/kg/injection, schedule: Q04DX002 (ip), vehicle: saline with Tween-80
[5] = endpoint: mean survival time, dose: 100.0 mg/kg/injection, schedule: Q01DX009 (ip), vehicle: saline with Tween-80
[6] = endpoint: mean survival time, dose: 100.0 mg/kg/injection, schedule: Q04DX003 (ip), vehicle: saline with Tween-80
[7] = endpoint: mean survival time, dose: 200.0 mg/kg/injection, schedule: Q01DX001 (ip), vehicle: saline with Tween-80
[8] = endpoint: mean survival time, dose: 200.0 mg/kg/injection, schedule: Q01DX009 (ip), vehicle: saline with Tween-80
[9] = endpoint: mean survival time, dose: 200.0 mg/kg/injection, schedule: Q04DX003 (ip), vehicle: saline with Tween-80
[10] = endpoint: mean survival time, dose: 400.0 mg/kg/injection, schedule: Q04DX003 (ip), vehicle: saline with Tween-80
[11] = endpoint: mean survival time, dose: 200.0 mg/kg/injection, schedule: Q01DX001 (ip), vehicle: saline
[12] = endpoint: mean survival time, dose: 50.0 mg/kg/injection, schedule: Q01DX009 (ip), vehicle: saline
[13] = endpoint: mean survival time, dose: 15.0 mg/kg/injection, schedule: Q04DX003 (ip), vehicle: saline

Measured: T/C

Nc1nc(-c2cccc([N+](=O)[O-])c2)c(N=Nc2ccccc2[N+](=O)[O-])s1
inactive: [1] 96 % of control | [2] 98 % of control

Nc1c([N+](=O)[O-])cncc1[N+](=O)[O-]
inactive: endpoint: mean survival time, dose: 6.25 mg/kg/injection, schedule: Q01DX009 (ip), vehicle: saline sonified 102 % of control | endpoint: mean survival time, dose: 6.25 mg/kg/injection, schedule: Q04DX003 (ip), vehicle: saline with Tween-80 98 % of control | endpoint: mean survival time, dose: 12.5 mg/kg/injection, schedule: Q01DX009 (ip), vehicle: saline sonified 98 % of control | endpoint: mean survival time, dose: 12.5 mg/kg/injection, schedule: Q04DX003 (ip), vehicle: saline with Tween-80 102 % of control | endpoint: mean survival time, dose: 25.0 mg/kg/injection, schedule: Q01DX009 (ip), vehicle: saline sonified 98 % of control | endpoint: mean survival time, dose: 25.0 mg/kg/injection, schedule: Q04DX003 (ip), vehicle: saline with Tween-80 102 % of control

Cc1cc(OC(=S)N(C)C)c(S(=O)(=O)F)cc1Cl
inactive: [3] 95 % of control | [4] 98 % of control | endpoint: mean survival time, dose: 400.0 mg/kg/injection, schedule: Q04DX002 (ip), vehicle: saline with Tween-80 95 % of control

CN(C)S(=O)(=O)C(C)(C)c1ccccc1
inactive: [1] 100 % of control | [5] 96 % of control | [6] 94 % of control | [7] 101 % of control | [8] 96 % of control | [9] 94 % of control | [2] 100 % of control | [10] 96 % of control

COc1ccc(C(O)c2ccccc2S(=O)(=O)N(C)C)cc1 (centres undefined)
inactive: endpoint: mean survival time, dose: 100.0 mg/kg/injection, schedule: Q01DX009 (ip), vehicle: saline sonified 105 % of control | endpoint: mean survival time, dose: 200.0 mg/kg/injection, schedule: Q01DX009 (ip), vehicle: saline sonified 96 % of control | endpoint: mean survival time, dose: 400.0 mg/kg/injection, schedule: Q01DX009 (ip), vehicle: saline sonified 93 % of control

CCOC(=O)Nc1cc(=O)cc(NC(=O)OCC)[nH]1
inactive: endpoint: mean survival time, dose: 75.0 mg/kg/injection, schedule: Q04DX003 (ip), vehicle: saline 98 % of control | endpoint: mean survival time, dose: 150.0 mg/kg/injection, schedule: Q04DX003 (ip), vehicle: saline 97 % of control | endpoint: mean survival time, dose: 300.0 mg/kg/injection, schedule: Q04DX003 (ip), vehicle: saline 97 % of control

O=C(O)CCSc1ccc2c(c1)CCCC2
inactive: endpoint: mean survival time, dose: 100.0 mg/kg/injection, schedule: Q01DX009 (ip), vehicle: Klucel (hydroxypropylcellulose) (HPC) 101 % of control | endpoint: mean survival time, dose: 200.0 mg/kg/injection, schedule: Q01DX009 (ip), vehicle: Klucel (hydroxypropylcellulose) (HPC) 98 % of control

CC(=O)Nc1ncc2ccccc2c1-c1ccc(N(CCOS(=O)(=O)c2ccc(C)cc2)CCOS(=O)(=O)c2ccc(C)cc2)cc1
inactive: endpoint: mean survival time, dose: 25.0 mg/kg/injection, schedule: Q04DX003 (ip), vehicle: DMSO 108 % of control | endpoint: mean survival time, dose: 50.0 mg/kg/injection, schedule: Q04DX003 (ip), vehicle: DMSO 104 % of control | endpoint: mean survival time, dose: 100.0 mg/kg/injection, schedule: Q04DX003 (ip), vehicle: DMSO 110 % of control | endpoint: mean survival time, dose: 200.0 mg/kg/injection, schedule: Q04DX003 (ip), vehicle: DMSO 116 % of control | endpoint: mean survival time, dose: 400.0 mg/kg/injection, schedule: Q04DX003 (ip), vehicle: DMSO 108 % of control

CN(C)S(=O)(=O)c1ccc(Cl)c([N+](=O)[O-])c1
inactive: endpoint: mean survival time, dose: 100.0 mg/kg/injection, schedule: Q04DX002 (ip), vehicle: Klucel (hydroxypropylcellulose) (HPC) 106 % of control | endpoint: mean survival time, dose: 200.0 mg/kg/injection, schedule: Q04DX002 (ip), vehicle: Klucel (hydroxypropylcellulose) (HPC) 106 % of control

CN(C)[C@@H]1C(=O)C(C(=O)NCNC(CO)(CO)CO)=C(O)[C@@]2(O)C(=O)C3=C(O)c4c(O)cccc4[C@@](C)(O)[C@H]3C[C@@H]12
inactive: endpoint: mean survival time, dose: 200.0 mg/kg/injection, schedule: Q01DX009 (ip), vehicle: saline 93 % of control | endpoint: mean survival time, dose: 264.0 mg/kg/injection, schedule: Q01DX009 (ip), vehicle: acetone 97 % of control | endpoint: mean survival time, dose: 300.0 mg/kg/injection, schedule: Q01DX009 (ip), vehicle: saline 98 % of control | endpoint: mean survival time, dose: 400.0 mg/kg/injection, schedule: Q01DX009 (ip), vehicle: acetone 92 % of control

CC(=O)C(C)(C)N(C)c1ccccc1
inactive: endpoint: mean survival time, dose: 100.0 mg/kg/injection, schedule: Q04DX003 (ip), vehicle: saline 97 % of control | endpoint: mean survival time, dose: 200.0 mg/kg/injection, schedule: Q04DX003 (ip), vehicle: saline 93 % of control | endpoint: mean survival time, dose: 400.0 mg/kg/injection, schedule: Q04DX003 (ip), vehicle: saline 93 % of control

CC1(C)NC(=O)NC1=O
inactive: endpoint: mean survival time, dose: 100.0 mg/kg/injection, schedule: Q01DX001 (ip), vehicle: saline 98 % of control | [11] 107 % of control | endpoint: mean survival time, dose: 400.0 mg/kg/injection, schedule: Q01DX001 (ip), vehicle: saline 107 % of control

CCOC(=O)C(C)(C)C(OP(=O)(OCC)OCC)=C(C)C
inactive: endpoint: mean survival time, dose: 75.0 mg/kg/injection, schedule: Q01DX001 (ip), vehicle: saline 103 % of control | endpoint: mean survival time, dose: 150.0 mg/kg/injection, schedule: Q01DX001 (ip), vehicle: saline 97 % of control | endpoint: mean survival time, dose: 300.0 mg/kg/injection, schedule: Q01DX001 (ip), vehicle: saline 100 % of control

CNC(=O)ON(C(C)=O)C(=O)NC
inactive: endpoint: mean survival time, dose: 12.5 mg/kg/injection, schedule: Q01DX009 (ip), vehicle: saline 100 % of control and 107 % of control | endpoint: mean survival time, dose: 25.0 mg/kg/injection, schedule: Q01DX009 (ip), vehicle: saline 107 % of control and 109 % of control | [12] 114 % of control and 109 % of control

NC(CS)=NCCc1nc2ccccc2[nH]1
inactive: endpoint: mean survival time, dose: 6.25 mg/kg/injection, schedule: Q04DX002 (ip), vehicle: saline 96 % of control | endpoint: mean survival time, dose: 12.5 mg/kg/injection, schedule: Q04DX002 (ip), vehicle: saline 93 % of control | endpoint: mean survival time, dose: 25.0 mg/kg/injection, schedule: Q04DX002 (ip), vehicle: saline 96 % of control and 104 % of control | endpoint: mean survival time, dose: 50.0 mg/kg/injection, schedule: Q04DX002 (ip), vehicle: saline 106 % of control

CCC(=O)Nc1ccc(C)c(Cl)c1
inactive: [5] 95 % of control | [6] 96 % of control | [8] 95 % of control | [9] 95 % of control | endpoint: mean survival time, dose: 400.0 mg/kg/injection, schedule: Q01DX009 (ip), vehicle: saline with Tween-80 104 % of control | [10] 97 % of control

O=[N+]1C=CC(=NN=c2ccn([O-])cc2)C=C1
inactive: [3] 100 % of control | [4] 96 % of control

CCS/C(SC)=C(/c1ccccc1)[P+](c1ccccc1)(c1ccccc1)c1ccccc1
inactive: endpoint: median survival time, dose: 1.5 mg/kg/injection, schedule: Q01DX009 (ip), vehicle: Klucel (hydroxypropylcellulose) (HPC) 111 % of control | endpoint: median survival time, dose: 3.0 mg/kg/injection, schedule: Q01DX009 (ip), vehicle: Klucel (hydroxypropylcellulose) (HPC) 114 % of control

Nc1nnc(Cl)s1
inactive: [1] 108 % of control | [7] 104 % of control | [2] 97 % of control

CCCN(CCC)CN(CCC)CCC
inactive: [12] 98 % of control | endpoint: mean survival time, dose: 100.0 mg/kg/injection, schedule: Q01DX009 (ip), vehicle: saline 105 % of control

O=C(COc1cc(Cl)c(Cl)cc1Cl)OCCOc1cc(Cl)c(Cl)cc1Cl
inactive: [13] 93 % of control | endpoint: mean survival time, dose: 30.0 mg/kg/injection, schedule: Q04DX003 (ip), vehicle: saline 89 % of control | [11] 86 % of control

CC1CC(C)(C)N=C(CCCCCCl)O1 (centres undefined)
inactive: endpoint: mean survival time, dose: 50.0 mg/kg/injection, schedule: Q04DX002 (ip), vehicle: saline with Tween-80 101 % of control | [1] 103 % of control | [3] 108 % of control | [7] 105 % of control | [4] 112 % of control

CC1(C)CC(Cc2ccccc2)C(=O)c2ccccc21 (centres undefined)
inactive: [6] 94 % of control | [9] 92 % of control | [10] 94 % of control

CN1CCC(O)(C#N)CC1
inactive: endpoint: mean survival time, dose: 3.75 mg/kg/injection, schedule: Q04DX003 (ip), vehicle: saline 102 % of control | endpoint: mean survival time, dose: 7.5 mg/kg/injection, schedule: Q04DX003 (ip), vehicle: saline 102 % of control | [13] 100 % of control

CC1=CC(=O)C(c2ccc(O)cc2O)=CC1=O
inactive: endpoint: mean survival time, dose: 2.5 mg/kg/injection, schedule: Q01DX009 (ip), vehicle: saline with Tween-80 96 % of control | endpoint: mean survival time, dose: 2.5 mg/kg/injection, schedule: Q04DX003 (ip), vehicle: saline with Tween-80 102 % of control | endpoint: mean survival time, dose: 5.0 mg/kg/injection, schedule: Q01DX009 (ip), vehicle: saline with Tween-80 91 % of control | endpoint: mean survival time, dose: 5.0 mg/kg/injection, schedule: Q04DX003 (ip), vehicle: saline with Tween-80 104 % of control | endpoint: mean survival time, dose: 10.0 mg/kg/injection, schedule: Q01DX009 (ip), vehicle: saline with Tween-80 95 % of control | endpoint: mean survival time, dose: 10.0 mg/kg/injection, schedule: Q04DX003 (ip), vehicle: saline with Tween-80 95 % of control
